Reference: the CheMixHub viscosity set

Test: xn = mol fraction of the nth substance listed

CCCCCCCO + CCOC(C)=O
viscosity [mPa·s], 101.33 kPa
Details	x2 = 0.1277	x2 = 0.2478	x2 = 0.3609	x2 = 0.4677	x2 = 0.5686	x2 = 0.6673	x2 = 0.7546	x2 = 0.8406
298.15 K	3.587	2.423	1.721	1.284	1	0.823	0.663	0.569
303.15 K	3.13	2.144	1.543	1.184	0.914	0.752	0.627	0.529
308.15 K	2.724	1.904	1.41	1.065	0.839	0.696	0.576	0.496

CCOC(=O)C(C)O (stereo unspecified) + CN1CCCC1=O
viscosity [mPa·s], 101 kPa
Details	293.15 K	313.15 K
x1 = 0.0999	–	1.525
x1 = 0.3001	2.585	1.765

NS(=O)(=O)O + CN1CCCC1=O
298 K, 101.33 kPa
Details	viscosity [mPa·s]
x1 = 0.02005	2.01
x1 = 0.03918	2.413
x1 = 0.05851	2.977
x1 = 0.07708	3.724
x1 = 0.09776	4.962

OC1CCCCC1 + CN1CCCC1=O
Details	viscosity [mPa·s]
303.15 K, 101 kPa, x2 = 0.6223	16.55

CS(C)=O + CN(C)C=O
Details	viscosity [mPa·s]
298 K, 101.3 kPa, x1 = 0.1668	0.924
298 K, 101.3 kPa, x1 = 0.3195	1.036
298 K, 101.3 kPa, x1 = 0.5201	1.242
298 K, 101.3 kPa, x1 = 0.6689	1.474
298 K, 101.3 kPa, x1 = 0.8514	1.785
298.15 K, 101 kPa, x1 = 0.1077	0.89
298.15 K, 101 kPa, x1 = 0.2134	0.99
298.15 K, 101 kPa, x1 = 0.4199	1.11
298.15 K, 101 kPa, x1 = 0.5205	1.24
298.15 K, 101 kPa, x1 = 0.6195	1.37
298.15 K, 101 kPa, x1 = 0.8128	1.61
298.15 K, 101 kPa, x1 = 0.9071	1.78
303.15 K, 101 kPa, x2 = 0.1	1.617
303.15 K, 101 kPa, x2 = 0.2	1.466
303.15 K, 101 kPa, x2 = 0.3	1.331
303.15 K, 101 kPa, x2 = 0.4001	1.228
303.15 K, 101 kPa, x2 = 0.5002	1.109
303.15 K, 101 kPa, x2 = 0.6001	1.025
303.15 K, 101 kPa, x2 = 0.7001	0.952
303.15 K, 101 kPa, x2 = 0.8	0.877
303.15 K, 101 kPa, x2 = 0.9	0.814
313.15 K, 101 kPa, x2 = 0.1	1.365
313.15 K, 101 kPa, x2 = 0.2	1.248
313.15 K, 101 kPa, x2 = 0.3	1.141
313.15 K, 101 kPa, x2 = 0.4001	1.057
313.15 K, 101 kPa, x2 = 0.5002	0.969
313.15 K, 101 kPa, x2 = 0.6001	0.9
313.15 K, 101 kPa, x2 = 0.7001	0.839
313.15 K, 101 kPa, x2 = 0.8	0.775
313.15 K, 101 kPa, x2 = 0.9	0.724
318 K, 101.3 kPa, x1 = 0.159	0.7095
318 K, 101.3 kPa, x1 = 0.3184	0.7948
318 K, 101.3 kPa, x1 = 0.521	0.9101
318 K, 101.3 kPa, x1 = 0.6667	1.032
318 K, 101.3 kPa, x1 = 0.8614	1.226
323.15 K, 101 kPa, x2 = 0.1	1.17
323.15 K, 101 kPa, x2 = 0.2	1.075
323.15 K, 101 kPa, x2 = 0.3	0.99
323.15 K, 101 kPa, x2 = 0.4001	0.922
323.15 K, 101 kPa, x2 = 0.5002	0.85
323.15 K, 101 kPa, x2 = 0.6001	0.792
323.15 K, 101 kPa, x2 = 0.7001	0.74
323.15 K, 101 kPa, x2 = 0.8	0.69
323.15 K, 101 kPa, x2 = 0.9	0.647

CC(C)CC(C)O (stereo unspecified) + CO
298.15 K, 101.33 kPa
Details	viscosity [mPa·s]
x2 = 0.1191	3.504
x2 = 0.2078	3.263
x2 = 0.3157	2.847
x2 = 0.4359	2.297
x2 = 0.5125	1.958
x2 = 0.6519	1.459
x2 = 0.7023	1.297
x2 = 0.8038	1.002
x2 = 0.9042	0.7423
